According to patent publication US20180263985A1, “MODULATORS OF TOLL-LIKE RECEPTORS FOR THE TREATMENT OF HIV” (Gilead Sciences, Inc., priority 2015, published 2018):
Values joined by “and” are separate entries in the source; they are usually repeats but may differ in a detail not shown here. Identical values can stand only once.

Key:
[1] = test system: PBMC cultures from HIV-1 infected subjects on cART; assay: Induced HIV-1 expression in PBMC cultures, HIV-1 RNA in supernatant after 4 days (COBAS TaqMan HIV-1 Test); type: cell-based, human; conditions: for Geometric Mean with ≥2-Fold-Activation / Range with ≥2-Fold-Activation: N = 5; for N with ≥2-Fold-Activation: subjects; for Fold HIV-1 Activation: vs DMSO
Procedure: In some experiments, IL-15, the TLR8 modulating compound of Example 15 or the combination of IL-15 and Example 15 were used at the indicated concentrations (Table 4). The cultures were maintained in the presence of antivirals (elvitegravir and efavirenz at 100 nM each) to prevent viral spread and amplification in order to measure the quantity of virus produced (latency reversal) by the TLR8 modulating compounds. At the end of the incubation period, cell-free culture supernatants were harvested and HIV-1 RNA levels were quantified by the COBAS® AmpliPrep/COBAS®TaqMan HIV-1 Test, v2.0 (Roche).
In each table, fold-activation is calculated as a ratio of HIV-1 RNA copies per ml of cell culture supernatants from TLR8 agonist treated samples and DMSO treated controls. Geometric mean fold-activation from three independent incubation samples for each condition of each subject's PBMCs. Values in bold indicate ≥2-fold HIV activation.
To assess if the latency reversal induced by TLR8 agonism could further potentiate latency reversal by a separate mechanisms, we treated cells as described above with IL-15, Example 15, or a combination of IL-15 and Example 15 (Table 4).

[2] = test system: HIV-specific polyfunctional CD8 T cells; assay: Induced HIV-specific polyfunctional CD8+ T cells in PBMC cultures from HIV-1 infected subjects on cART; type: cell-based, human; conditions: for Median HIV-specific polyfunctional CD8 T cells (% proliferating CD8+ cells double positive for IFN-γ and TNF-α): HIV peptide pool, 5 subjects
[3] = test system: serum cytokines and chemokines; assay: Induction of cytokines and chemokines in serum of orally dosed Rhesus macaques (Luminex); type: in vivo
Procedure: The TLR8 modulator of Example 65 was formulated in 2% ethanol, 40% polyethylene glycol 300, and 58% 0.01 N hydrochloric acid. Oral solutions of formulations were prepared by dissolving a sufficient amount of the compound in the 2% ethanol, 40% polyethylene glycol 300, and 58% 0.01 N hydrochloric acid vehicle to arrive at 0.5, 1.5, or 5 mg/ml of Example 65. Rhesus macaques were dosed orally with 1.2 to 2 mls/kg to achieve dose levels of 1, 3, 6, or 10 mg/kg Example 65. Blood samples were collected at 2, 4, 8, 12, 24 and 48 hours postdose (FIG. 5) and allowed to clot under ambient conditions prior to centrifugation to obtain serum. The indicated cytokines and chemokines were quantified in serum with a multiplexed Luminex® assay following the manufacturer's instructions (Life Technologies). […] At 10 and 6 mg/kg, IL-12, IL-1RA and MCP-1 peaked near 10 ng/ml and IL-6 peaked at 1 ng/ml.

## CCC[C@@H](CO)Nc1nc(N)nc2cc(F)c(F)cc12 [Example 119, (S)-2-((2-amino-6,7-difluoroquinazolin-4-yl)amino)pentan-1-ol, reference compound]
[1]; 156 nM
  Subjects with ≥2-Fold-Activation (%): (67) %
  Geometric Mean with ≥2-Fold-Activation: 4.2 fold
  Range with ≥2-Fold-Activation: 3.6-4.9 fold
  N with ≥2-Fold-Activation: 2 of 3
[1]; 156 nM, one value per subject (IDs 151-155)
  Fold HIV-1 Activation: 3.6 fold and 4.9 fold and 0.4 fold
[1]; 625 nM
  Subjects with ≥2-Fold-Activation (%): (60) %
  Geometric Mean with ≥2-Fold-Activation: 4.1 fold
  Range with ≥2-Fold-Activation: 3.4-4.8 fold
  N with ≥2-Fold-Activation: 3 of 5
[1]; 625 nM, one value per subject (IDs 151-155)
  Fold HIV-1 Activation: 3.4 fold and 4.1 fold and 4.8 fold and 0.3 fold and 0.5 fold
[1]; 2,500 nM
  Subjects with ≥2-Fold-Activation (%): (100) %
  Geometric Mean with ≥2-Fold-Activation: 3.6 fold
  Range with ≥2-Fold-Activation: 2.2-5.2 fold
  N with ≥2-Fold-Activation: 5 of 5
[1]; 2,500 nM, one value per subject (IDs 151-155)
  Fold HIV-1 Activation: 4.1 fold and 4.2 fold and 3.2 fold and 5.2 fold and 2.2 fold
[1]; 156, 625, or 2500 nM
  Geometric Mean with ≥2-Fold-Activation: 4.1 fold
  Range with ≥2-Fold-Activation: 2.2-5.2 fold
  N with ≥2-Fold-Activation: 5 out of 5 and 5 of 5

## IL-15: interleukin-15, used at 1 nM as a separate latency reversal stimulus
[1]; IL-15 1 nM
  Subjects with ≥2-Fold-Activation (%): 66%
  N with ≥2-Fold-Activation: 4 of 6
[1]; IL-15 1 nM, N = 6
  Fold HIV-1 Activation, Geometric Mean: 2.9 fold
[1]; IL-15 1 nM, one value per subject (IDs 205-210)
  Fold HIV-1 Activation: 1.6 fold and 2.6 fold and 3.3 fold and 4.4 fold and 6.3 fold and 1.4 fold

## CCCCC(C)(CO)Nc1nc(N)nc2cc(F)cnc12 (stereo not drawn) [Example 98]
[2]; 100 nM
  Patients in whom increases in HIV-specific polyfunctional CD8 T cells were seen: 4 of 5
  Median HIV-specific polyfunctional CD8 T cells (% proliferating CD8+ cells double positive for IFN-γ and TNF-α): 0.93%
[2]; 1000 nM
  Patients in whom increases in HIV-specific polyfunctional CD8 T cells were seen: 4 of 5
  Median HIV-specific polyfunctional CD8 T cells (% proliferating CD8+ cells double positive for IFN-γ and TNF-α): 0.92%
[2]; 1000 nM with HIV specific peptide pool vs vehicle, p<0.05
  Fold increase of median HIV-specific polyfunctional CD8 T cells: 7.1 fold

## CCCC[C@](C)(CNC(C)=O)Nc1nc(N)nc2cc(Cl)cnc12 [Example 65]
[3]; oral 1, 3, 6, or 10 mg/kg
  Induction of cytokines associated with TLR8 activation (IL-12, IL-6, IL-1RA, MCP-1) in serum: induced in a dose-dependent manner
[3]; oral 10 and 6 mg/kg
  IL-1RA peak serum concentration: ~10 ng/mL
  IL-6 peak serum concentration: 1 ng/mL
  IL-12 peak serum concentration: ~10 ng/mL
  MCP-1 peak serum concentration: ~10 ng/mL
[3]; oral dosing
  Time of peak serum cytokine concentrations post-dose: 2 h
